In the NIST ThermoML archive (doi:10.1016/j.fluid.2014.05.036):
± gives the expanded uncertainty stated by the source.

How the values were obtained:
[1] = Crystal; DTA
[2] = Molar enthalpy of transition or fusion; details: Crystal; DSC

Normal melting temperature [1]	Molar enthalpy of transition or fusion [2]	Compound
96.40 ± 0.5 °C	6.34 ± 0.182 kcal/mol	CCCOC(=O)c1ccc(O)cc1 [propyl 4-hydroxybenzoate]
115.50 ± 0.5 °C	6.16 ± 0.179 kcal/mol	CCOC(=O)c1ccc(O)cc1 [ethyl 4-hydroxybenzoate]
